Laboratory results reported in PMC11477426, “Interaction of Tri-Cyclic Nucleobase Analogs with Enzymes of Purine Metabolism: Xanthine Oxidase and Purine Nucleoside Phosphorylase” (International Journal of Molecular Sciences, 2024).
Values belong to the compound of their own block, whether it stands above or below them.

Tests used:
xanthine oxidase (XO) [1] = biological target: T1, xanthine oxidase (XO) (Bos taurus, UniProt P80457); test: isothermal titration calorimetry (estimate only); also oxidation kinetics, apparent Km […] at pH […] and […] at pH […]; format: binding; set-up: gene XDH; commercial XO from bovine milk
T1 sequence (P80457 2-1332): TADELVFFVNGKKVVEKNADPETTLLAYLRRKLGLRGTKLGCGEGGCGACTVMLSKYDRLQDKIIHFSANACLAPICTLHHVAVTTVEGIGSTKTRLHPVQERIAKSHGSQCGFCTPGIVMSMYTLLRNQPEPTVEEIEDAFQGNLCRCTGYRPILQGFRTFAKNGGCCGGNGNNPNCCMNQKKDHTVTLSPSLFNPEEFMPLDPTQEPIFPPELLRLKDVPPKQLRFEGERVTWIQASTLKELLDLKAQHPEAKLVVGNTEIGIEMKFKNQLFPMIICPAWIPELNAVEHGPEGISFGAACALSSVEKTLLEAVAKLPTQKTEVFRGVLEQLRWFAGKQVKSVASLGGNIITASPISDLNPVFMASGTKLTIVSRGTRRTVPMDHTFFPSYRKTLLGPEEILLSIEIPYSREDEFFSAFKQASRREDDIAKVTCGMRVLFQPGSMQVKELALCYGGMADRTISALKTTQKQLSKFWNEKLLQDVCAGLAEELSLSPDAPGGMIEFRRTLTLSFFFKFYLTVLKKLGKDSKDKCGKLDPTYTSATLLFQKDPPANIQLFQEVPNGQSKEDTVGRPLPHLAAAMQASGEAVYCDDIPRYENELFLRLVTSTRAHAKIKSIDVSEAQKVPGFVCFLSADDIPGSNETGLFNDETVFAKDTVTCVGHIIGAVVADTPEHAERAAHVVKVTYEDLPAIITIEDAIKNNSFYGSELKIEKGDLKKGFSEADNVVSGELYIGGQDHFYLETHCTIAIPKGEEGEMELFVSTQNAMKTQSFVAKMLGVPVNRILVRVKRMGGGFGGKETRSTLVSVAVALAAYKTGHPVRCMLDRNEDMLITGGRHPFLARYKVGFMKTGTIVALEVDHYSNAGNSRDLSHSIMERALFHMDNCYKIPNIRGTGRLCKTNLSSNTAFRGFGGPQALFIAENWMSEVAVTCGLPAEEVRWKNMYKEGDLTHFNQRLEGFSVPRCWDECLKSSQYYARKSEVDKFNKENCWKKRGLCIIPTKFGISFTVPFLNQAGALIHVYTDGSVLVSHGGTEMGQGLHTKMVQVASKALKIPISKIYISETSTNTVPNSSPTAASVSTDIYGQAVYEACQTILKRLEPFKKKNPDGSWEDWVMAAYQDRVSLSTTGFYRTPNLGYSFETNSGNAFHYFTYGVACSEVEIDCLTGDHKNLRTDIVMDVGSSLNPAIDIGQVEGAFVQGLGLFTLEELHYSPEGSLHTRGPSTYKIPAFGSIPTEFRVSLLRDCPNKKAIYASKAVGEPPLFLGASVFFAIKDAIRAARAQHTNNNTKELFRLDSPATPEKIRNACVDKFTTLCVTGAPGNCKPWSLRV

xanthine oxidase (XO) [2] = biological target: T1, xanthine oxidase (XO); test: isothermal titration calorimetry (estimate only); weak substrate in oxidation assay; format: binding; set-up: gene XDH; commercial XO from bovine milk
From the text: isothermal titration calorimetry (estimate only); weak substrate in oxidation assay on xanthine oxidase (XO) | the endo- and exothermic processes were again observed.

[3] = biological target: T2, purine nucleoside phosphorylase (WT PNP) (Escherichia coli, UniProt P0ABP8); test: crystal structure ([…] Å) and isothermal titration calorimetry; format: binding
T2 construct: gene deoD; recombinant wild-type E. coli PNP, hexamer
T2 sequence (P0ABP8 2-239): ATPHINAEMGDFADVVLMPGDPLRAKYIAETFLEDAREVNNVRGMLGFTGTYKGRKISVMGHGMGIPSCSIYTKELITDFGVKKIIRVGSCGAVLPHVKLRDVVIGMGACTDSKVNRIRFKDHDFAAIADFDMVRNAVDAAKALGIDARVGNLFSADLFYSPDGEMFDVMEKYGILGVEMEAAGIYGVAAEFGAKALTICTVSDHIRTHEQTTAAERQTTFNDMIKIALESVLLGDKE

xanthine oxidase (XO) [4] = biological target: T1, xanthine oxidase (XO); test: competition with oxidation of I, fluorimetric assay, pH […]; format: biochemical; set-up: gene XDH; commercial XO from bovine milk (purified enzyme)

Kd (xanthine oxidase (XO) [1]): ~0.0022 µM
Compound: c1cn2cc3nc[nH]c3nc2n1 [I, 1,N^2-ε2APu]

Compound: c1cn2c(n1)ncc1nc[nH]c12 [II, N^2,3-ε2APu]
Kd (xanthine oxidase (XO) [2]): ~0.0075 µM
Kd [3]: 36.2 µM

Ki (xanthine oxidase (XO) [4]): 3 µM
Compound: O=c1[nH]c(=O)c2[nH]cnc2[nH]1 [xanthine]
